Consider two molecules from article PMC10916623, “Tissue distribution and pharmacokinetics of isoxanthohumol from hops in rodents” (Food Science & Nutrition, 2023).

Where “and” joins values, the source holds several entries; their conditions need not be identical. Equal entries are not always repeated.

Data set [1] is described as follows: Tissue distribution after single-gavage administration of IXA to mice. In kind it is in vivo, C57/BL6 mice. The following applies: for 8-PN accumulation, single-ingestion test (at 24 h) / AUC (0–48 h) 8-PN/IXA / C max 8-PN: mice; for 8-PN accumulation, single-ingestion test (at 24 h): single IXA 50 mg/kg BW; for 8-PN accumulation, single-ingestion test (at 24 h) / C max 8-PN: metabolite; for AUC (0–48 h) 8-PN/IXA / C max 8-PN: single oral IXA 50 mg/kg BW. As to the method:
(§1) Six‐week‐old male C57/BL6 mice (initial BW: 19–24 g; Japan SLC, Shizuoka, Japan) were housed in a room maintained at 23–26°C with a 12‐h light–dark cycle. During the 1‐week acclimatization period, they were allowed free access to a commercial diet (Oriental Yeast Co., Tokyo, Japan) and water. Two days before the experiment, they were fed AIN‐93M (Oriental Yeast Co.). Before drug administration, they were fasted for 20 h, but had free access to water. IXA dissolved in 3% hydroxypropyl‐β‐cyclodextrin and 5% ethanol (Fujifilm; Wako Pure Chemical Corp., Osaka, Japan) was named the injection solution and administered (50 mg/kg BW) to mice intragastrically using a gastric feeding tube (AS ONE, Osaka, Japan). Blood, brain, thymus, heart, lung, liver, spleen, pancreas, kidney, and gastrocnemius muscle were collected 0.5, 1, 2, 4, 8, 12, 24, and 48 h after administration. We also set up a control group, and mice in this group were sacrificed just before we started administering IXA at 0 h. At 4 h after administration, mice were allowed free access to AIN‐93 M. Plasma was isolated by centrifugation at 17 × 10^3 m/s^2 (5911, Kubota, Tokyo, Japan) for 5 min at 4°C. All tissues were dissected, weighed, and immediately frozen in liquid nitrogen. All samples were stored at −80°C until analysis.
(§2) Tissue sample deconjugation was performed as described in a previous report with slight modifications (Tanaka et al., [2022]). Tissues were homogenized in phosphate‐buffered saline (pH 7.4), which was nine times the tissue volume. The tissue homogenate was incubated in 50 mmol/L ascorbic acid (one‐fifth the volume of phosphate‐buffered saline) and 1.67 μkat/100 μL of β‐glucuronidase type H‐1 in 0.1 mol/L sodium acetate buffer (pH 4.7, nine times the volume of the sample) for 2 h at 37°C. Then, 2.4 nmol of QTM was added to samples as an internal standard. The supernatant was isolated by centrifugation at 17 × 10^3 m/s^2 (Kubota) for 5 min at 4°C. Then, methanol (Kanto Kagaku, 25183‐2B) was added to the pellets, and they were shaken for 1 min. The methanol layer and pellets were separated by centrifugation at 17 × 10^3 m/s^2 (Kubota, RY1071‐A000) for 5 min at 4°C. Methanol extraction was repeated three times. Finally, methanol extracts were mixed with the supernatant (the composition of the mixture was 30% methanol) and then applied to an Inert Sep C8 (200 mg/3 mL; GL Sciences, Tokyo, Japan; 5010‐61082) cartridge. The cartridge was preconditioned with 6 mL of 2% acetic acid in methanol, and then 9 mL of 2% acetic acid in water. The extracted tissue was passed through the cartridge, and it was washed with 5 mL of 2% acetic acid in 30% methanol aq. The flavonoids were eluted with 10 mL of 2% acetic acid in methanol.
(§3) The plasma and tissue extracts were evaporated using a Centrifugal Evaporator (EYERA, Tokyo, Japan, CVE‐3000). The samples were stored at −80°C until the next day. Then, the samples were dissolved in 120 μL of a mobile phase solution and divided into two test tubes. The first sample was injected into the HPLC with an ultraviolet detection system (Shimadzu, Kyoto, Japan).
(§4) IXA and 8‐PN concentrations were determined by their respective standard curves using an internal standard method. A Cadenza 3‐μm CD‐C18 HPLC column (CD005, 150 × 4.6 mm; Imtakt Corporation, Kyoto, Japan) was equipped for HPLC (λ = 295 nm). The mobile phase consisted of methanol:water:acetic acid (60:35:5, v/v/v). The flow rate was set at 1.0 mL/min. […] Because clear peaks over 4.5 pmol/sample were detected for IXA and 8‐PN by visual evaluation, we determined that these concentrations were the peak limit of detections for each flavonoid. We applied calibration curves in the IXA/QTM concentration ratio range of 0.007–35.1 (R ^2 = .9955).

Data set [2] is described as follows: Tissue and plasma accumulation after daily gavage administration of IXA to mice for 14 days. It counts as in vivo, C57/BL6 mice. The conditions noted are these: IXA 30 mg/kg BW daily 14 days, metabolite, 24 h after final administration. As to the method: Animal species, age, sex, initial BW, feeding conditions, and dosage method were the same as those for the single gavage administration test, but the dose was 30 mg/kg BW. […] Daily gavage administration without fasting was performed at 12:00 PM for 14 days. The final BW was 21–26 g. Blood, brain, thymus, heart, lung, liver, spleen, kidney, and gastrocnemius muscle were collected 24 h after the final administration. The sample collection method was the same as that for the single gavage administration test.
(§5) Plasma samples were deconjugated by β‐glucuronidase type H‐1 (which has β‐glucuronidase and sulphatase activity; Sigma, St. Louis, MO, USA; G0751) to convert aglycon from conjugated metabolites of IXA and 8‐PN, as described in a previous report (Y. Tanaka et al., [2022]). Briefly, 100 μL of plasma was mixed with 900 μL of 0.1 mol/L sodium acetate buffer (pH 4.7), 200 μL of 50 mmol/L ascorbic acid, and 1 mL of 1.67 μkat/100 μL of β‐glucuronidase type H‐1, and then incubated for 30 min at 37°C. Then, 2.4 nmol of QTM was added to the samples as the internal standard. The liberated aglycone was extracted using ethyl acetate (Kanto Kagaku, 14,029‐2B).
as §2, §3, §4

Data set [3] in a line: Plasma pharmacokinetics after single-gavage administration of IXA to mice. The following applies: single oral IXA 50 mg/kg BW, data not shown. In kind it is in vivo, C57/BL6 mice. As to the method: as §1, §5, §3, §4
Data set [4] is described as follows: Liver accumulation after intragastric IXA administration at various concentrations to rats for 28 days. In kind it is in vivo, Sprague–Dawley rats. The conditions noted are these: rat liver. As to the method: Six‐week‐old female Sprague–Dawley rats (Charles River Laboratories Japan, Inc., Yokohama, Japan) were housed in a room maintained at 20–26°C on a 12‐h light–dark cycle. The initial BW of rats was 176–179 g. They were allowed free access to a commercial diet (CRF‐1) and water during the experiment. IXA dissolved in injection solution was administered intragastrically to rats (112.5, 225, 360, 450, and 1500 mg/kg BW) daily for 28 days using a gastric feeding tube. We also set up a control group to which the injection solution was administered. The final BW of rats was 231–241 g. The liver was collected the day after the last administration. The rats were fasted for 16–24 h before they were euthanized, but they had free access to water. Liver samples were stored at −80°C until analysis.
as §2
The plasma and tissue extracts were evaporated using a Centrifugal Evaporator (EYERA, Tokyo, Japan, CVE‐3000). The samples were stored at −80°C until the next day. Then, the samples were dissolved in 120 μL of a mobile phase solution and divided into two test tubes. […]
IXA and 8‐PN concentrations were determined by their respective standard curves using an internal standard method. […] Because clear peaks over 4.5 pmol/sample were detected for IXA and 8‐PN by visual evaluation, we determined that these concentrations were the peak limit of detections for each flavonoid. […]

“4,5,7‐trihydroxy‐8‐prenylflavanone [8‐PN]”: the “8-PN accumulation, single-ingestion test (at 24 h)” value in data set [1] (liver) is 4.6 ± 1.8 nmol/g of tissue; in data set [1] (lung), 1.8 ± 0.9 nmol/g of tissue. In addition, the “AUC (0–48 h) 8-PN/IXA” value in data set [1] (liver) is 26%; in data set [1] (lung), 109% and 109.3%; in data set [1] (pancreas) it was 1%. The “C max 8-PN” value was 4.6 ± 1.8 nmol/g of tissue in data set [1] (liver, measured at 24 h); 4.5 ± 2.5 nmol/g of tissue in data set [1] (lung, measured at 2 h); 0.6 ± 0.5 nmol/g of tissue in data set [1] (pancreas, measured at 1 h). Also, the “8-PN accumulation, 14-day repeated-ingestion test” value is listed as 0.8 ± 0.7 nmol/g of tissue in data set [2] (brain); “not detected” in data set [2] (heart); 2.1 ± 0.4 nmol/g of tissue in data set [2] (liver); 3.9 ± 3.5 nmol/g of tissue in data set [2] (lung); 0.1 ± 0.0 nmol/g of tissue in data set [2] (muscle); “not detected” in data set [2] (plasma). Moreover, the “8-PN accumulation, 14-day repeated-ingestion test” value in data set [2] (spleen) is 0.6 ± 0.6 nmol/g of tissue; in data set [2] (thymus) it was 0.6 ± 0.5 nmol/g of tissue. Besides, in data set [3], the “8-PN in the plasma during the experiment” value is reported as “not observed”. Also, in data set [4] (IXA 112.5 mg/kg, 28 days), the “amount of 8-PN relative to that of IXA (times higher)” value is “approximately two”. Also, in data set [4] (IXA 1500 mg/kg, 28 days), the “8-PN levels compared with those of IXA” value is “approximately 7.4%”. The “correlation coefficient between dose-concentration and accumulation” value in data set [4] (IXA 112.5–1500 mg/kg BW once a day for 28 days, Pearson) was “−.255”.

Take `CC(C)=CCc1c(O)cc2c(c1O)C(=O)C[C@@H](c1ccc(O)cc1)O2` [6‐PN, 6‐prenylnaringenin]: the “presence of 6-PN in the samples analyzed in this study” value in data set [1] (mouse, in vivo) is recorded as “not detected”.
